Where a name gives a salt, the structure may show the parent alone.
What follows are molecules tested against T1, Androgen Receptor (Homo sapiens, UniProt P10275, T878A) (assay: Androgen Receptor Degradation Assay (Nano-Glo HiBiT)). Conditions: LNCaP, 18 h, HiBiT-tagged AR in human LnCaP cells, read-out: mean asymptote max.
T1 construct: the AR gene was modified, using CRISPR/Cas9 editing, so the expressed AR protein included an 11 amino acid HiBiT tag; endogenous in cells; host or cells: clonal LnCaP-derived line, AR gene edited by CRISPR/Cas9
Format: cell-based
Method in brief: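 LnCaP cells with CRISPR-knocked-in N-terminal HiBiT-tagged AR (10,000/well) treated 18 h at 37 °C with PROTACs over 11 threefold concentrations; lytic HiBiT luminescence normalised to DMSO (0%) and cell-free (100%) controls. Relative DC50 = 4-parameter fit inflection; absolute DC50 = 50% degradation interpolation; Dmax = maximum observed degradation.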

T1 sequence (P10275 whole entry T878A): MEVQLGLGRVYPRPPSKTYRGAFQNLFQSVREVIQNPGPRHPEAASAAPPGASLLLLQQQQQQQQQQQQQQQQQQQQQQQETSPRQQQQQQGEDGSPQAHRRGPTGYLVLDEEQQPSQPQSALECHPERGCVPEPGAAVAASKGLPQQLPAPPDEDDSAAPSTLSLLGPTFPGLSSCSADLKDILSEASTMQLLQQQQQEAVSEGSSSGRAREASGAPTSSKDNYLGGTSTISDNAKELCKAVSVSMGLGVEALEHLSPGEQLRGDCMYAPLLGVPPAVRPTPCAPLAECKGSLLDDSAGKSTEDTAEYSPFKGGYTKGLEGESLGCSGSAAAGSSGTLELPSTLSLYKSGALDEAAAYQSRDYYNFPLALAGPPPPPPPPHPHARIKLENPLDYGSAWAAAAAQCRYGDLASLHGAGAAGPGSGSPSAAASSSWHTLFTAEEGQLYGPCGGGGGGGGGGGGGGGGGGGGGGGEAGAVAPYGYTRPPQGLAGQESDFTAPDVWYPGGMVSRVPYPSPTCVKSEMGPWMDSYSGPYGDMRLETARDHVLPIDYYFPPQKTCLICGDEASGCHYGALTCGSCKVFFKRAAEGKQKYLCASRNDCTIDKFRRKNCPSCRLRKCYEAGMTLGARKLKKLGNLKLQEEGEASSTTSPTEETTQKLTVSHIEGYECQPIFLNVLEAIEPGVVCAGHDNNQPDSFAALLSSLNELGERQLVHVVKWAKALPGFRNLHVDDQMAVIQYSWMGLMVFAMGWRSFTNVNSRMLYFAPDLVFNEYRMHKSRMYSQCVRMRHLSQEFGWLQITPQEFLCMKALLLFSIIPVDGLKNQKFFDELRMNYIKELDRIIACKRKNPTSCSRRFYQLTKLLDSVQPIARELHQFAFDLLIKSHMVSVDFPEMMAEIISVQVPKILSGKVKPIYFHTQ
T1 sequence (Q96SW2 whole entry partner): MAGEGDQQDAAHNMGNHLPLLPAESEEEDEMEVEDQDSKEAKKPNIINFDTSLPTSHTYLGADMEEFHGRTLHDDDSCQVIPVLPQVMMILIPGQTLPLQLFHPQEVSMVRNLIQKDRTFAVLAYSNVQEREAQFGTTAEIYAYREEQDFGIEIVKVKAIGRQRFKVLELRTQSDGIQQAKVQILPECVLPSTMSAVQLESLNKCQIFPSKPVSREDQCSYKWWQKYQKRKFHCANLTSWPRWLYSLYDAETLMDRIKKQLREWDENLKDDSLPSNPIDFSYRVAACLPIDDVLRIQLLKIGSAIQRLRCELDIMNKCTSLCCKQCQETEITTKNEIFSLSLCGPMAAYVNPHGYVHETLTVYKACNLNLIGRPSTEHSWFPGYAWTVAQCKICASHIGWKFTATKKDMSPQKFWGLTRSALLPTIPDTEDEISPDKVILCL
T1 sequence (Q16531 whole entry partner): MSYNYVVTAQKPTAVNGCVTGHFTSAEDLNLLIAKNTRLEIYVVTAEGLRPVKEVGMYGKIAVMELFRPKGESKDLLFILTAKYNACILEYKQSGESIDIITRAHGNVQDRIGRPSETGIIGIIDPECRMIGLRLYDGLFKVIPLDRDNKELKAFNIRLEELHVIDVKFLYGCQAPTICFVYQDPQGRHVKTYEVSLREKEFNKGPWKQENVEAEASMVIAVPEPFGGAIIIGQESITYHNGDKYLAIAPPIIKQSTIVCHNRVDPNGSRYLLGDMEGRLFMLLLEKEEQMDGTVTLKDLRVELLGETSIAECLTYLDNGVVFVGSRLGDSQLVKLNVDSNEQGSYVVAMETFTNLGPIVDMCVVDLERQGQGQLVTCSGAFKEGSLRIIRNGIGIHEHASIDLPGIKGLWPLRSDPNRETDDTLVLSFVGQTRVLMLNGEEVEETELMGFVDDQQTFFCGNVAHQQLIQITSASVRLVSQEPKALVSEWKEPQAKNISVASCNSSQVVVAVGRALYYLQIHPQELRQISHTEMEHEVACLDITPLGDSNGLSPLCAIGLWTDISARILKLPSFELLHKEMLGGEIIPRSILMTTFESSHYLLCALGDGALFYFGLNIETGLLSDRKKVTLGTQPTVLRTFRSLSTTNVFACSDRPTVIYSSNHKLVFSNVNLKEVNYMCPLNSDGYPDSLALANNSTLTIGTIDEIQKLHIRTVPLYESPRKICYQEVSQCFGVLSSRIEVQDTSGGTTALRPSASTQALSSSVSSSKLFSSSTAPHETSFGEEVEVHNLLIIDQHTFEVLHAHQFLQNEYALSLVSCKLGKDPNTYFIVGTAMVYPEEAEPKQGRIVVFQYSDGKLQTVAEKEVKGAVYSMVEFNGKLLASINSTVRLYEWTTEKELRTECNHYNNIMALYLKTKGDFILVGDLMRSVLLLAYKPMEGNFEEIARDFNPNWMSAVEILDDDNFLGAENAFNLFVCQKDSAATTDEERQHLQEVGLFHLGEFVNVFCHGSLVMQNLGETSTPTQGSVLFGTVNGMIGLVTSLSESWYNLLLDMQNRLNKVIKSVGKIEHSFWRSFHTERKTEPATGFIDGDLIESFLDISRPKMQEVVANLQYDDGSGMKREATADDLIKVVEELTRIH

Dmax [%] | Compound
≥ 50 | N#Cc1ccc(O[C@H]2CC[C@H](NC(=O)c3ccc(N4CCC(CN5CCC6(CC5)CC(n5ccc7c(N8CCC(=O)NC8=O)cccc75)C6)CC4)nn3)CC2)cc1Cl [EAR185, N-((1r,4r)-4-(3-Chloro-4-cyanophenoxy)cyclohexyl)-6-(4-((2-(4-(2,4-dioxotetrahydropyrimidin-1(2H)-yl)-1H-indol-1-yl)-7-azaspiro[3.5]nonan-7-yl)methyl)piperidin-1-yl)pyridazine-3-carboxamide hydrochloride]
≥ 50 | N#Cc1ccc(O[C@H]2CC[C@H](NC(=O)c3ccc(N4CCC[C@@H](CN5CCC(n6ccc7c(N8CCC(=O)NC8=O)cccc76)CC5)C4)nn3)CC2)cc1Cl [EAR143, N-((1r,4R)-4-(3-chloro-4-cyanophenoxy)cyclohexyl)-6-((S)-3-((4-(4-(2,4-dioxotetrahydropyrimidin-1(2H)-yl)-1H-indol-1-yl)piperidin-1-yl)methyl)piperidin-1-yl)pyridazine-3-carboxamide]
≥ 50 | N#Cc1ccc(O[C@H]2CC[C@H](NC(=O)c3ccc(N4CCC[C@H](CN5CCC(n6ccc7c(N8CCC(=O)NC8=O)cccc76)CC5)C4)nn3)CC2)cc1Cl [EAR142, N-((1r,4R)-4-(3-chloro-4-cyanophenoxy)cyclohexyl)-6-((R)-3-((4-(4-(2,4-dioxotetrahydropyrimidin-1(2H)-yl)-1H-indol-1-yl)piperidin-1-yl)methyl)piperidin-1-yl)pyridazine-3-carboxamide]
≥ 50 | N#Cc1ccc(O[C@H]2CC[C@H](NC(=O)c3ccc4c(c3)CCN(C(=O)CN3CCC(n5ccc6c(N7CCC(=O)NC7=O)cccc65)CC3)C4)CC2)cc1Cl [AR5, N-((1r,4r)-4-(3-Chloro-4-cyanophenoxy)cyclohexyl)-2-(2-(4-(4-(2,4-dioxotetrahydropyrimidin-1(2H)-yl)-1H-indol-1-yl)piperidin-1-yl)acetyl)-1,2,3,4-tetrahydroisoquinoline-6-carboxamide]
≥ 50 | N#Cc1ccc(O[C@H]2CC[C@H](NC(=O)c3cnc(N4CCC(CN5CCC(n6ncc7c(N8CCC(=O)NC8=O)cc(F)cc76)CC5)CC4)nc3)CC2)cc1Cl [AR205, N-((1r,4r)-4-(3-Chloro-4-cyanophenoxy)cyclohexyl)-2-(4-((4-(4-(2,4-dioxotetrahydropyrimidin-1(2H)-yl)-6-fluoro-1H-indazol-1-yl)piperidin-1-yl)methyl)piperidin-1-yl)pyrimidine-5-carboxamide]
≥ 50 | N#Cc1ccc(O[C@H]2CC[C@H](NC(=O)c3ccc(N4CCC(CN5CC[C@@H](n6ccc7c(N8CCC(=O)NC8=O)cccc76)[C@H](F)C5)CC4)nn3)CC2)cc1Cl [EAR144, N-((1r,4r)-4-(3-Chloro-4-cyanophenoxy)cyclohexyl)-6-(4-(((3R,4R)-4-(4-(2,4-dioxotetrahydropyrimidin-1(2H)-yl)-1H-indol-1-yl)-3-fluoropiperidin-1-yl)methyl)piperidin-1-yl)pyridazine-3-carboxamide, hydrochloride]
≥ 50 | N#Cc1ccc(O[C@H]2CC[C@H](NC(=O)c3ccc(N4CC5(CCC5CN5CCC(n6ncc7c(N8CCC(=O)NC8=O)cccc76)CC5)C4)nn3)CC2)cc1Cl (stereo partly drawn) [EAR236, N-((1r,4r)-4-(3-chloro-4-cyanophenoxy)cyclohexyl)-6-(5-((4-(4-(2,4-dioxotetrahydropyrimidin-1(2H)-yl)-1H-indazol-1-yl)piperidin-1-yl)methyl)-2-azaspiro[3.3]heptan-2-yl)pyridazine-3-carboxamide]
≥ 50 | CC1(C)[C@H](NC(=O)c2ccc(N3CCC(CN4CCC(n5ccc6c(N7CCC(=O)NC7=O)cncc65)CC4)CC3)nc2)C(C)(C)[C@H]1Oc1ccc(C#N)c(Cl)c1 [EAR20, N-((1r,3r)-3-(3-Chloro-4-cyanophenoxy)-2,2,4,4-tetramethylcyclobutyl)-6-(4-((4-(4-(2,4-dioxotetrahydropyrimidin-1(2H)-yl)-1H-pyrrolo[2,3-c]pyridin-1-yl)piperidin-1-yl)methyl)piperidin-1-yl)nicotinamide]
≥ 50 | N#Cc1ccc(O[C@H]2CC[C@H](NC(=O)c3cnc(N4CCC(CN5CCC(n6ccc7c(N8CCC(=O)NC8=O)cncc76)CC5)CC4)cn3)CC2)cc1Cl [AR16, N-((1r,4r)-4-(3-Chloro-4-cyanophenoxy)cyclohexyl)-5-(4-((4-(4-(2,4-dioxotetrahydropyrimidin-1(2H)-yl)-1H-pyrrolo[2,3-c]pyridin-1-yl)piperidin-1-yl)methyl)piperidin-1-yl)pyrazine-2-carboxamide]
≥ 50 | N#Cc1ccc(O[C@H]2CC[C@H](NC(=O)c3ccc(N4CCC(N5CCC(n6ccc7c(N8CCC(=O)NC8=O)cccc76)CC5)CC4)nn3)CC2)cc1Cl [AR7, N-((1r,4r)-4-(3-Chloro-4-cyanophenoxy)cyclohexyl)-6-(4-(4-(2,4-dioxotetrahydropyrimidin-1(2H)-yl)-1H-indol-1-yl)-[1,4′-bipiperidin]-1′-yl)pyridazine-3-carboxamide]
≥ 50 | N#Cc1ccc(O[C@H]2CC[C@H](NC(=O)c3ccc(CCN4CCC(n5ccc6c(N7CCC(=O)NC7=O)cccc65)CC4)cc3)CC2)cc1Cl [EAR130, N-((1r,4r)-4-(3-Chloro-4-cyanophenoxy)cyclohexyl)-4-(2-(4-(4-(2,4-dioxotetrahydropyrimidin-1(2H)-yl)-1H-indol-1-yl)piperidin-1-yl)ethyl)benzamide]
≥ 50 | N#Cc1ccc(O[C@H]2CC[C@H](NC(=O)c3ccc4c(c3)CN(C(=O)CN3CCC(n5ccc6c(N7CCC(=O)NC7=O)cccc65)CC3)C4)CC2)cc1Cl [AR6, N-((1r,4r)-4-(3-Chloro-4-cyanophenoxy)cyclohexyl)-2-(2-(4-(4-(2,4-dioxotetrahydropyrimidin-1(2H)-yl)-1H-indol-1-yl)piperidin-1-yl)acetyl)isoindoline-5-carboxamide]
≥ 50 | N#Cc1ccc(O[C@H]2CC[C@H](NC(=O)c3ccc(OC4CN(C(=O)CN5CCC(n6ccc7c(N8CCC(=O)NC8=O)cccc76)CC5)C4)nn3)CC2)cc1Cl [EAR178, N-((1r,4r)-4-(3-Chloro-4-cyanophenoxy)cyclohexyl)-6-((1-(2-(4-(4-(2,4-dioxotetrahydropyrimidin-1(2H)-yl)-1H-indol-1-yl)piperidin-1-yl)acetyl)azetidin-3-yl)oxy)pyridazine-3-carboxamide]
≥ 50 | N#Cc1ccc(O[C@H]2CC[C@H](NC(=O)c3ccc(N4CCC(CN5CCC(n6ncc7c(N8CCC(=O)NC8=O)cccc76)CC5)CC4)nn3)CC2)cc1Cl [EAR43, N-((1r,4r)-4-(3-Chloro-4-cyanophenoxy)cyclohexyl)-6-(4-((4-(4-(2,4-dioxotetrahydropyrimidin-1(2H)-yl)-1H-indazol-1-yl)piperidin-1-yl)methyl)piperidin-1-yl)pyridazine-3-carboxamide]

Compound | Dmax [%]
C[C@@H]1CN(c2ccc(C#N)c(Cl)c2)[C@@H](C)CN1C(=O)c1ccc(OCCN2CCC(n3ncc4c(N5CCC(=O)NC5=O)cncc43)CC2)nc1 [EAR174, 2-Chloro-4-((2S,5R)-4-(6-(2-(4-(4-(2,4-dioxotetrahydropyrimidin-1(2H)-yl)-1H-pyrazolo[3,4-c]pyridin-1-yl)piperidin-1-yl)ethoxy)nicotinoyl)-2,5-dimethylpiperazin-1-yl)benzonitrile] | ≥ 50

— patent publication US20250205344A1, “2,4-DIOXOTETRAHYDROPYRIMIDINYL DERATIVES AS DEGRONS IN PROTACS” (GLAXOSMITHKLINE INTELLECTUAL PROPERTY DEVELOPMENT LIMITED, priority 2022, published 2025)
